Experimental data: ChEMBL document CHEMBL6087402, “Design, synthesis, and in vitro and in vivo biological evaluation of dihydroartemisinin derivatives as potent anti-cancer agents with ferroptosis-inducing and apoptosis-activating properties” (Eur J Med Chem, 2025)
The source made the active and inactive calls. The rule behind the calls is not given here.

How the values were obtained:
HCT-116 [1] = test: Induction of cell cycle arrest in human HCT-116 cells assessed as accumulation at S phase at 0.3 uM incubated for 72 hrs by PI staining based flow cytometry (reference value: 23.49 %); type: functional
HCT-116 [2] = test: Antitumor activity against human HCT-116 cells xenografted in mouse assessed as reduction in cellular atypia at 50 mg/kg, ip administered once in every 2 days for 21 days by H and E staining based analysis; type: functional, organism-based; settings: time 21.0 day
HCT-116 [3] = test: Induction of apoptosis in human HCT-116 cells assessed as viable cells at 3 uM incubated for 72 hrs by Annexin V-FITC/PI staining based flow cytometry (reference value: 97.1 %); type: functional; settings: read-out: Activity
HCT-116 [4] = test: Induction of apoptosis in human HCT-116 cells assessed as increase in Bax level upto 3 uM incubated for 72 hrs by Western blot analysis; type: functional, cell-based
HCT-116 [5] = test: Induction of apoptosis in human HCT-116 cells assessed as decrease in Bcl-2 level upto 3 uM incubated for 72 hrs by Western blot analysis; type: functional, cell-based
[6] = Toxicity in BALB/c mouse assessed as animal death at 100 mg/kg, ip administered continuously for 7 days; type: organism-based; settings: in vivo, 168 h, time 7 day
HCT-116 [7] = test: Induction of ferroptosis in human HCT-116 cells incubated for 72 hrs in presence of Fer-1 by MTT assay; type: functional, cell-based
[8] = Toxicity in BALB/c mouse assessed as apparent damage in spleen at 100 mg/kg, ip administered continuously for 7 days by H and E staining based analysis; type: organism-based; settings: in vivo, 168 h, time 7 day
HCT-116 [9] = test: Inhibition of colony formation in human HCT-116 cells incubated for 7 to 12 days by crystal violet staining based analysis; type: functional, cell-based; settings: dose <= 3.0 µM, time 7-12 day
HCT-116 [10] = test: Induction of lipid peroxidation in human HCT-116 cells upto 3 uM incubated for 24 hrs by confocal fluorescence microscopy; type: functional, cell-based
[11] = Toxicity in mouse xenografted with human HCT-116 cells assessed as body weight change at 50 mg/kg, ip administered once in every 2 days for 21 days; type: organism-based; settings: in vivo, 504 h, time 21 day
HCT-116 [12] = test: Induction of cell cycle arrest in human HCT-116 cells assessed as accumulation at G2/M phase at 0.3 uM incubated for 72 hrs by PI staining based flow cytometry (reference value: 15.79 %); type: functional
HCT-116 [13] = test: Induction of cell cycle arrest in human HCT-116 cells assessed as accumulation at G0/G1 phase at 3 uM incubated for 72 hrs by PI staining based flow cytometry (reference value: 80.71 %); type: functional
HCT-116 [14] = test: Induction of cell cycle arrest in human HCT-116 cells assessed as accumulation at G2/M phase at 0.03 uM incubated for 72 hrs by PI staining based flow cytometry (reference value: 15.79 %); type: functional
HCT-116 [15] = test: Induction of apoptosis in human HCT-116 cells assessed as increase in p38 level upto 3 uM incubated for 72 hrs by Western blot analysis; type: functional, cell-based
[16] = Toxicity in BALB/c mouse assessed as apparent damage in lungs at 100 mg/kg, ip administered continuously for 7 days by H and E staining based analysis; type: organism-based; settings: in vivo, 168 h, time 7 day
[17] = Selectivity index, ratio of IC50 for human L02 cells to IC50 for human HCT-116 cells; type: toxicity; settings: L02 cells versus HCT-116 cells, read-out: Ratio IC50
HCT-116 [18] = test: Induction of apoptosis in human HCT-116 cells assessed as early apoptotic cells at 0.03 uM incubated for 72 hrs by Annexin V-FITC/PI staining based flow cytometry (reference value: 1.55 %); type: functional
HCT-116 [19] = test: Induction of apoptosis in human HCT-116 cells assessed as early apoptotic cells at 3 uM incubated for 72 hrs by Annexin V-FITC/PI staining based flow cytometry (reference value: 1.55 %); type: functional
HCT-116 [20] = test: Induction of cell cycle arrest in human HCT-116 cells at G2/M phase assessed as increase in p53 level incubated for 72 hrs by Western blot analysis; type: functional, cell-based; settings: dose <= 3.0 µM
HCT-116 [21] = test: Anti-proliferative activity against human HCT-116 cells assessed as reduction in total STAT3 level upto 3 uM incubated for 72 hrs by Western blot analysis; type: functional, cell-based
[22] = Toxicity in BALB/c mouse assessed as apparent damage in liver at 100 mg/kg, ip administered continuously for 7 days by H and E staining based analysis; type: organism-based; settings: in vivo, 168 h, time 7 day
[23] = Toxicity in BALB/c mouse assessed as apparent damage in kidney at 100 mg/kg, ip administered continuously for 7 days by H and E staining based analysis; type: organism-based; settings: in vivo, 168 h, time 7 day
HCT-116 [24] = test: Induction of apoptosis in human HCT-116 cells assessed as viable cells at 0.03 uM incubated for 72 hrs by Annexin V-FITC/PI staining based flow cytometry (reference value: 97.1 %); type: functional; settings: read-out: Activity
HCT-116 [25] = test: Antitumor activity against human HCT-116 cells xenografted in mouse at 50 mg/kg, ip administered once in every 2 days for 21 days relative to control; type: functional; settings: HCT-116, 504 h, time 21 day, read-out: TGI
Bel-7402 = test: Anti-proliferative activity against human Bel-7402 cells incubated for 72 hrs by MTT assay; type: functional, cell-based; settings: Bel-7402, 72 h
HCT-116 [26] = test: Induction of apoptosis in human HCT-116 cells assessed as late apoptotic cells at 0.03 uM incubated for 72 hrs by Annexin V-FITC/PI staining based flow cytometry (reference value: 0.98 %); type: functional
HCT-116 [27] = test: Anti-proliferative activity against human HCT-116 cells assessed as inhibition of STAT3 phosphorylation upto 3 uM incubated for 72 hrs by Western blot analysis; type: functional, cell-based
HCT-116 [28] = test: Induction of cell cycle arrest in human HCT-116 cells assessed as accumulation at S phase at 3 uM incubated for 72 hrs by PI staining based flow cytometry (reference value: 23.49 %); type: functional

Q: For `C[C@@H]1CC[C@H]2[C@@H](C)C(OC(=O)Nc3ccc(Cl)cc3)O[C@@H]3O[C@@]4(C)CC[C@H]1[C@]32OO4` (some centres undefined), which Activity (HCT-116 [1]) is on record?
A: The Activity was 24.55%.

Q: What about the Activity (HCT-116 [2]) of the same molecule?
A: Its Activity is “Active”.

Q: And the viability at 3 µM (HCT-116 [3])?
A: Its viability at 3 µM is 56.7%.

Q: And the Activity (HCT-116 [4])?
A: The Activity was “Active”.

Q: And the Activity (HCT-116 [5])?
A: Its Activity is “Active”.

Q: What about the Activity [6] of the same molecule?
A: The Activity was “Non-toxic”.

Q: And the Activity (HCT-116 [7])?
A: Its Activity is “inactive”.

Q: What about the Activity [8] of the same molecule?
A: Its Activity is “Non-toxic”.

Q: And the inhibition (HCT-116 [9])?
A: The inhibition was “Dose-dependent-effect”.

Q: What about the Activity (HCT-116 [10]) of the same molecule?
A: The Activity was “Active”.

Q: And the Activity [11]?
A: Its Activity is “Non-toxic”.

Q: And the Activity (HCT-116 [12])?
A: The Activity was 37.8%.

Q: And the Activity (HCT-116 [13])?
A: The Activity was 42.97%.

Q: And the Activity (HCT-116 [14])?
A: The Activity was 25.25%.

Q: What about the Activity (HCT-116 [15]) of the same molecule?
A: The Activity was “Active”.

Q: What about the Activity [16] of the same molecule?
A: Its Activity is “Non-toxic”.

Q: And the selectivity ratio [17]?
A: The selectivity ratio was 54.1.

Q: What about the Activity (HCT-116 [18]) of the same molecule?
A: Its Activity is 4.11%.

Q: And the Activity (HCT-116 [19])?
A: Its Activity is 17%.

Q: And the Activity (HCT-116 [20])?
A: The Activity was “Dose-dependent-effect”.

Q: And the Activity (HCT-116 [21])?
A: The Activity was “Active”.

Q: What about the Activity [22] of the same molecule?
A: The Activity was “Non-toxic”.

Q: And the Activity [23]?
A: Its Activity is “Non-toxic”.

Q: And the viability at 0.03 µM (HCT-116 [24])?
A: Its viability at 0.03 µM is 93.3%.

Q: What about the inhibition in vivo at 50 mg/kg (HCT-116 [25]) of the same molecule?
A: Its inhibition in vivo at 50 mg/kg is at most 58.7%.

Q: And the IC50 (Bel-7402)?
A: The IC50 was 8.41 µM.

Q: And the Activity (HCT-116 [26])?
A: Its Activity is 2.4%.

Q: And the inhibition (HCT-116 [27])?
A: The inhibition was “Active”.

Q: And the Activity (HCT-116 [28])?
A: The Activity was 23.71%.
